# Experimental data published in PMC9133036 (Nature Communications, 2022).
# Where a chain is given by its changes, count along the chain named. “And” between values parts separate entries of the source, which are not always exact repeats. Equal values may be shown once. Read-outs that look alike come from different tables or passages of the source.
# Experiments:
# Assay type in all cases: cell-based
# OX2R F227A = biological target: T1, OX2R F227A (Homo sapiens, UniProt O43614, F227A); experiment: β-arrestin PathHunter assay, OX2R F227A; conditions: for EC50: β-arrestin recruitment; for beta-arrestin recruitment fold change: F227A, listed as OxB
# T1 construct: expressed in transfected cells; host or cells: CHO-K1 stably expressing EA β-arrestin2
# T1 sequence (O43614 1-444 F227A): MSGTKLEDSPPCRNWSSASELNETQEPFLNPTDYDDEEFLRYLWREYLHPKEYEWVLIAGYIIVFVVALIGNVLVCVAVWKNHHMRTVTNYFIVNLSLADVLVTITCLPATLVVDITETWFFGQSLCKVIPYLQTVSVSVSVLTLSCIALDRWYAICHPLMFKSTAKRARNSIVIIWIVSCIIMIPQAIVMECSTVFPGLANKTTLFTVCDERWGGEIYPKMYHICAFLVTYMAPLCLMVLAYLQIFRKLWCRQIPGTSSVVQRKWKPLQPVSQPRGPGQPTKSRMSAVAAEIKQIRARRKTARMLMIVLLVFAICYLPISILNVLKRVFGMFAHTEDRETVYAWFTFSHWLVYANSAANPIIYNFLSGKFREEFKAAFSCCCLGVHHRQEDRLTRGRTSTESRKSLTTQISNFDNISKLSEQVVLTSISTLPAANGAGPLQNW
# Procedure: (§1) β-Arrestin recruitment activity was measured by using the PathHunter system (DiscoveRX) according to the manufacturer’s instruction. Receptor constructs used were the full-length wild-type (or mutant) human OX2R sequences cloned into pCMV-ProLink (DiscoveRX). CHO-K1 cells stably expressing EA β-arrestin2 (DiscoveRX) were plated on 384 well white plates (Thermo Fisher) at 4000 cells/well in HamF12 (Wako Pure Chemical Industries) supplemented with 10% fetal bovine serum (Corning) and penicillin-streptomycin (Wako Pure Chemical Industries) and incubated overnight at 37 °C under 5% CO2. Cells were transfected with plasmids encoding wild type or each mutant ProLink-tagged human OX2R using FuGENE HD (Promega). […] Detection reagent was added and incubated for 1 h at room temperature. Luminescent signal was detected using an EnVision plate reader (PerkinElmer). β-arrestin assays on different constructs were performed in two or three independent experiments (each done in quadruplicate). Dose response curves (shown in Supplementary Fig. 8) were fitted to the three-parameter model ‘log(agonist) vs response’ in GraphPad Prism to determine pEC50 values.
# OX2R Y354A = biological target: T2, OX2R Y354A (Homo sapiens, UniProt O43614, Y354A); experiment: β-arrestin PathHunter assay, OX2R Y354A; conditions: for beta-arrestin recruitment fold change: Y354A, listed as OxB
# T2 construct: expressed in transfected cells; host or cells: CHO-K1 cells stably expressing EA β-arrestin2 (DiscoveRX), transiently transfected with pCMV-ProLink OX2R
# Procedure: as §1
# OX2R V114A = biological target: T3, OX2R V114A (Homo sapiens, UniProt O43614, V114A); experiment: β-arrestin PathHunter assay, OX2R V114A
# T3 construct: expressed in transfected cells; host or cells: CHO-K1 stably expressing EA β-arrestin2
# Procedure: as §1
# OX2R T111A = biological target: T4, OX2R T111A (Homo sapiens, UniProt O43614, T111A); experiment: IP accumulation assay, OX2R T111A; conditions: for % IP accumulation: listed as OXB
# T4 construct: FLAG; expressed in transfected cells; host or cells: HEK293
# T4 sequence (O43614 1-444 T111A): T1 sequence (O43614 1-444 F227A) with T111A, A227F
# Excerpt: (§2) The IP assay was adapted from a prior precedent. HEK293 cells were maintained in DMEM-high glucose (Millipore Sigma) supplemented with 5% fetal bovine serum (Corning) and penicillin-streptomycin (Millipore Sigma). Receptor constructs used were the full-length wild-type (or mutant) human OX1R and OX2R sequences cloned into pCDNA3. To enhance the Emax in the IP assay, a plasmid encoding full-length human Gαq subunit[66] was co-transfected into HEK293 cells with plasmids encoding orexin receptor constructs using Lipofectamine 3000 (Thermo Fisher). 24 h after transfection, the cells were plated on poly-D-lysine coated (Millipore Sigma) tissue culture-treated 96 well white plates with clear bottoms (Perkin Elmer) at 30,000 cells per well in Inositol-free DMEM (MP Biomedicals) supplemented with 5% fetal bovine serum, 4 mM L-glutamine (Millipore Sigma), penicillin-streptomycin, and about 5 uCi (5 ul) per ml myo-[2-3H] inositol (Perkin Elmer). The following day, the media was replaced with agonists that were diluted in HBSS (Millipore Sigma) containing 10 mM lithium chloride (Millipore Sigma) and incubated at 37 °C for 45 min. Then agonists were removed and cells were lysed on ice for 30 min with 10 mM formic acid (Millipore Sigma). 1.25 mg of poly-lysine coated YSI SPA beads (Perkin Elmer) was added to each well. The plates were mixed on an orbital shaker for 30 min. The plates were read on a MicroBeta scintillation counter (Perkin Elmer) the following day. IP accumulation assays on different constructs were performed in n ≥ 3 independent experiments (each done in duplicate), where n is shown in Supplementary Table 2.
# human OX2R wild type = biological target: T5, human OX2R wild type (Homo sapiens, UniProt O43614); experiment: Inositol phosphate accumulation assay for Gq signaling, OX2R WT; set-up: FLAG; expressed in transfected cells; host or cells: HEK293; conditions: for Emax: normalized to OX2R WT Emax with the same ligand;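 for % IP accumulation: 100% equals the maximal response of wild-type OX2R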
# T5 sequence (O43614 1-444): T1 sequence (O43614 1-444 F227A) with A227F
# Excerpt: as §2
# [1] = OxB concentration -6.00 (log, M)
# [2] = OxB concentration -6.52 (log, M)
# [3] = OxB concentration -7.00 (log, M)
# [4] = OxB concentration -7.52 (log, M)
# [5] = OxB concentration -8.00 (log, M)
# [6] = OxB concentration -8.52 (log, M)
# [7] = OxB concentration -9.00 (log, M)
# [8] = OxB concentration -10.00 (log, M)
# T2 sequence (O43614 whole entry Y354A): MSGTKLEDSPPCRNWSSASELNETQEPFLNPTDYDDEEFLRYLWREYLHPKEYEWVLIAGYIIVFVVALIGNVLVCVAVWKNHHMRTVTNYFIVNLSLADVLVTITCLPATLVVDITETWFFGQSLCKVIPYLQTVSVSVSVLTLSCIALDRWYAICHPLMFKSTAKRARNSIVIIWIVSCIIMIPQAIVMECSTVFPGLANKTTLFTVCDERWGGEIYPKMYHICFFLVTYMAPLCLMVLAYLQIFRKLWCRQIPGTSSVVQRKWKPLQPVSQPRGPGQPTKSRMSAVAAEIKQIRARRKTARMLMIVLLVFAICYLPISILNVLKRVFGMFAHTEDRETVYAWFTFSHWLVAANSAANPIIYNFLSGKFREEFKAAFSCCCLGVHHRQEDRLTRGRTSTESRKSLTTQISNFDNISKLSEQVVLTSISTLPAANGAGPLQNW
# T2 sequence (P32121 whole entry partner): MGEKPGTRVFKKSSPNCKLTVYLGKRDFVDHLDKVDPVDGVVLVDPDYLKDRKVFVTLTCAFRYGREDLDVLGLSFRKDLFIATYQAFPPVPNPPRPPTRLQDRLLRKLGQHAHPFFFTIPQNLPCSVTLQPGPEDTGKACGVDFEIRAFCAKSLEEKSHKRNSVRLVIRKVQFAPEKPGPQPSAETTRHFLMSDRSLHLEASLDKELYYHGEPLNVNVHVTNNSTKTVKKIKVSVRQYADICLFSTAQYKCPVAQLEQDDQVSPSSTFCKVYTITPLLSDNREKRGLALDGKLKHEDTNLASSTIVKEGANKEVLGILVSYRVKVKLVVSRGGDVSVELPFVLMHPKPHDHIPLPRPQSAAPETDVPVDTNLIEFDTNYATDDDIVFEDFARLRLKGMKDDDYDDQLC
# T3 sequence (O43614 whole entry V114A): as the sequence (O43614 whole entry Y354A) above, with V114A, A354Y counted along it
compound,measurement,setting,value
"COC(=O)N1CCC[C@H](NS(C)(=O)=O)[C@@H]1CO[C@H]1CC[C@@H](c2ccccc2)CC1 [TAK-925, methyl (2R,3S)−3-[(methylsulfonyl)amino]−2-{[(cis−4-phenylcyclohexyl)oxy]methyl}piperidine-1-carboxylate]",EC50,OX2R F227A; read-out: EC50,> 30000 nM
same,EC50,OX2R F227A; read-out: pEC50 (converted),> 30200 nM
same,EC50,OX2R Y354A; β-arrestin recruitment,2400 nM
same,EC50,OX2R V114A; β-arrestin recruitment,2200 nM
same,EC50,OX2R T111A; IP accumulation,2100 nM
same,Emax,OX2R T111A; relative to OX2R WT/TAK-925,53
same,EC50,human OX2R wild type; IP accumulation,7.5 nM
same,% IP accumulation,"human OX2R wild type; TAK-925 conc (log, M) -10.25",0.00%
same,Emax,human OX2R wild type,100
orexin B,beta-arrestin recruitment fold change,OX2R F227A; [1],9.362 fold and 8.115 fold and 7.068 fold and 6.668 fold
same,beta-arrestin recruitment fold change,OX2R F227A; [2],5.797 fold and 5.207 fold and 4.992 fold and 3.983 fold
same,beta-arrestin recruitment fold change,OX2R F227A; [3],2.141 fold and 2.264 fold and 1.690 fold and 2.115 fold
same,beta-arrestin recruitment fold change,OX2R F227A; [4],0.997 fold and 1.239 fold and 0.840 fold and 1.032 fold
same,beta-arrestin recruitment fold change,OX2R F227A; [5],0.797 fold and 0.852 fold and 0.855 fold and 0.772 fold
same,beta-arrestin recruitment fold change,OX2R F227A; [6],0.707 fold and 0.923 fold and 0.738 fold and 0.787 fold
same,beta-arrestin recruitment fold change,OX2R F227A; [7],0.670 fold and 0.812 fold and 0.735 fold and 0.836 fold
same,beta-arrestin recruitment fold change,OX2R F227A; [8],0.813 fold and 0.979 fold and 0.709 fold and 0.989 fold
same,beta-arrestin recruitment fold change,OX2R Y354A; [1],9.833 fold and 7.839 fold and 7.764 fold and 5.538 fold
same,beta-arrestin recruitment fold change,OX2R Y354A; [2],8.222 fold and 8.331 fold and 7.995 fold and 7.023 fold
same,beta-arrestin recruitment fold change,OX2R Y354A; [3],7.061 fold and 6.164 fold and 4.831 fold and 5.998 fold
same,beta-arrestin recruitment fold change,OX2R Y354A; [4],3.021 fold and 4.546 fold and 4.264 fold and 4.947 fold
same,beta-arrestin recruitment fold change,OX2R Y354A; [5],1.570 fold and 2.249 fold and 1.723 fold and 2.390 fold
same,beta-arrestin recruitment fold change,OX2R Y354A; [6],0.925 fold and 1.624 fold and 1.133 fold and 1.227 fold
same,beta-arrestin recruitment fold change,OX2R Y354A; [7],0.997 fold and 0.922 fold and 1.331 fold and 1.082 fold
same,beta-arrestin recruitment fold change,OX2R Y354A; [8],1.135 fold and 1.096 fold and 1.298 fold and 1.060 fold
same,beta-arrestin recruitment fold change,"OX2R V114A; V114A, OxB concentration -8.00 (log, M), listed as OxB",1.594 fold and 2.704 fold and 1.365 fold and 1.888 fold
same,% IP accumulation,"OX2R T111A; OXB conc (log, M) -6.95",23.30% and 22.94% and 22.04%
same,% IP accumulation,"OX2R T111A; OXB conc (log, M) -7.43",18.33% and 16.23% and 14.57%
same,% IP accumulation,"OX2R T111A; OXB conc (log, M) -7.91",15.27% and 13.44% and 11.80%
same,% IP accumulation,"human OX2R wild type; OXB conc (log, M) -6.47712, listed as OXB",93.64% and 92.82% and 91.17% and 95.11% and 103.46%
same,% IP accumulation,"human OX2R wild type; OXB conc (log, M) -10.29, listed as OXB",0.00% and 0.37% and 3.64%
same,Emax,human OX2R wild type,100
